# Reference: patent publication US6613800B1, “Method and compositions for treating psoriasis, eczema, seborrhea and arthritis” (priority 2001, dated 2003)
# Tested on: psoriasis
# Assay: Case studies: clinical treatment of resistant psoriasis
# Type: in vivo, human
# Details: Case No. 9; Methotrexate 5-10 mg per week from April 2001, Psorex stopped; summer to August 2001
# Source text: The following case studies are presented to show results from clinical trials of the present invention on resistant cases of psoriasis, eczema and seborrhea.
# A combination of Psorizide Ultra® and Psorex® was employed in some of these case studies. In others, a combination of Psorizide Ultra® and Fumaric Acid 1× was used. Psorizide Ultra® is a natural mineral homeopathic medication commercially available from Applicant's company, i.e. LOMA LUX Laboratories, 5801 E. 41st Street, Suite 200, Tulsa, Okla. 74135. This prescription drug includes active ingredients of nickel sulfate and potassium bromide.
# Psorex® is a scientifically designed supplement containing reagent grade fumaric acid esters. This supplement is commercially available from Ecological Formulas at 1-800-888-4585. Each Psorex® capsule contains 120 mg fumaric acid ester.
# Fumaric Acid 1×300 mg tablets are commercially available from B.H.I., 11600 Cochiti Road SE, Albuquerque, N.Mex. 87123-3376. Each Fumaric Acid 1× tablet contains approximately 30 mg of fumaric acid.
# The patient is a person with a ten year history of psoriasis of the anogenital region. They had been treated with numerous topical lotions with only limited results. More recently they also developed left knee involvement and flaring of all disease sites due to surgery. They presented November 2000 complaining of itching. […]
smiles,measurement,value
"CN(Cc1cnc2nc(N)nc(N)c2n1)c1ccc(C(=O)N[C@@H](CCC(=O)O)C(=O)O)cc1 [Methotrexate®, Methotrexate]",clinical condition of plaque psoriasis,"doing very well through the summer, but by August 2001 the psoriasis was worse"
